Assay results reported in patent US12006278B1, “4,4′-naphthalene-1,5-diylbis(diazene-2,1-diyl)diphenol as an antioxidant compound” (KING FAISAL UNIVERSITY, priority 2023, dated 2024).

Experiment: DPPH radical scavenging antioxidant test
Details: 517 nm; for Inhibition (radical scavenging inhibition): compound 3 μM in ethanol + 0.2 mL DPPH (0.75 mM), 30 min incubation in the dark
Procedure: The antioxidant properties of the 4,4′-naphthalene-1,5-diylbis(diazene-2,1-diyl)diphenol were studied by adding 0.2 mL DPPH (0.75 mM)) to compound 4,4′-naphthalene-1,5-diylbis(diazene-2,1-diyl)diphenol (III) (3 μM) in ethanol. After 30 min of incubation in the dark, the absorbance was read against a blank at 517 nm. Ascorbic acid (vitamin C) was used as standard antioxidants (positive control). A blank sample was prepared by 0.2 ml of DPPH in 3 ml ethanol. A negative control sample was run using ethanol instead of the sample. The radical scavenging inhibition was calculated using the following equation: […]

| Structure (SMILES) | antioxidant potential compared to vitamin C (result in words) (DPPH in vitro test, vitamin C as positive control) | Inhibition (radical scavenging inhibition) |
| --- | --- | --- |
| Oc1ccc(/N=N\c2cccc3c(/N=N/c4ccc(O)cc4)cccc23)cc1 [Product III, 4,4′-naphthalene-1,5-diylbis(diazene-2,1-diyl)diphenol] | high potential as an antioxidant | 54% |
| O=C1O[C@H]([C@@H](O)CO)C(O)=C1O [vit c, Ascorbic acid, reference compound] | – | 74% |
